Data reported in article PMC7397269, “Synthesis and Evaluation of New Coumarin Derivatives as Antioxidant, Antimicrobial, and Anti-Inflammatory Agents” (Molecules, 2020).
Converted amounts (≈) assume the structure as drawn. “And” between values parts separate entries of the source, which are not always exact repeats. Equal entries are not always repeated. Where two headings read alike, the source gives them in different places.

What was measured:
[1] = DPPH antioxidant assay (radical scavenging); type: biochemical; details: mean ± SD (n = 3)
Procedure, shortened: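 Compounds, starting at 200 μg/mL, were mixed with 0.2 mM methanolic DPPH and incubated 30 min in the dark at 25 °C; absorbance was read at 515 nm. % inhibition is background-corrected against DPPH-only control, with IC50 from curve fit. Runs were triplicate (mean ± SD), with ascorbic acid as positive control.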

[2] = system: Staphylococcus aureus ATCC 29213; assay: Agar well diffusion, S. aureus; type: cell-based; details: ATCC29213, 100 μL of 10 mg/mL in DMSO, read-out: diameter of inhibition zone, SA
Procedure, shortened: (§1)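 Wells (10 mm) in nutrient agar (bacteria, 1 × 10^8 CFU/mL) or Sabouraud dextrose agar (yeast, 1 × 10^6 CFU/mL) loaded with 100 μL of 10 mg/mL compound in DMSO. Plates incubated 24 h at 37 °C. Inhibition zone diameter (mm), mean of triplicates.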

[3] = system: Bacillus subtilis ATCC 6633; assay: Agar well diffusion, B. subtilis; type: cell-based; details: ATCC6633, 100 μL of 10 mg/mL in DMSO, read-out: diameter of inhibition zone, BS
Procedure, shortened: as §1

[4] = system: Bacillus megaterium ATCC 9885; assay: Agar well diffusion, B. megaterium; type: cell-based; details: Priestia megaterium, ATCC9885, 100 μL of 10 mg/mL in DMSO, read-out: diameter of inhibition zone, BM
Procedure, shortened: as §1

[5] = system: Escherichia coli ATCC 2592; assay: Agar well diffusion, E. coli; type: cell-based; details: ATCC2592, 100 μL of 10 mg/mL in DMSO, read-out: diameter of inhibition zone, EC
Procedure, shortened: as §1

[6] = system: Pseudomonas aeruginosa ATCC 27,953; assay: Agar well diffusion, P. aeruginosa; type: cell-based; details: ATCC27, 100 μL of 10 mg/mL in DMSO, read-out: diameter of inhibition zone, PA
Procedure, shortened: as §1

[7] = system: Saccharomyces cerevisiae local isolate; assay: Agar well diffusion, S. cerevisiae; type: cell-based; details: read-out: diameter of inhibition zone, SC
Procedure, shortened: as §1

[8] = system: Candida albicans NRRL Y-477; assay: Agar well diffusion, C. albicans; type: cell-based; details: NRRLY477, 100 μL of 10 mg/mL in DMSO, read-out: diameter of inhibition zone, CA
Procedure, shortened: as §1

[9] = system: Bacillus subtilis ATCC 6633; assay: MIC, two-fold serial dilution, B. subtilis; type: cell-based; details: ATCC6633, read-out: Minimum inhibitory concentration, BS
Source text: (§2) The new molecules were individually tested for their antimicrobial activity in vitro against standard bacteria strains from the American Type Culture Collection (ATCC), namely, Staphylococcus aureus ATCC 29213, Bacillus subtilis ATCC 6633, Bacillus megaterium ATCC 9885 (Gram-positive), Escherichia coli ATCC 2592, and Pseudomonas aeruginosa ATCC 27,953 (Gram-negative). The compounds were also microbiologically tested against locally isolated Saccharomyces cerevisiae (yeast) and the standard Agricultural Research Service Culture Collection (NRRL) strain of the yeast-like pathogenic fungus Candida albicans NRRL Y-477. Primary screening was conducted using the agar well diffusion method using nutrient agar (NA) medium and Sabourand dextrose agar (SDA) medium for the tested pathological bacteria and yeast, respectively. […].
(§3) The bacteriostatic activity of the active compounds (having IZ > 16 mm) was then evaluated using the two-fold serial dilution technique. Two-fold serial dilutions of the tested compounds solutions were prepared using the proper nutrient broth to reach final concentrations of 1000, 500, 250, and 125 μg/mL. The tubes were then inoculated with the test microorganisms grown in their suitable broth at 37 °C for 24 h (1 × 10^8 CFU/mL for bacteria and 1 × 10^6 CFU/mL of yeast), 0.1 mL of the above inoculum was administered per 5 mL, and the tubes were incubated at 37 °C for 24 h. The lowest concentration showing no growth was taken as the MIC.

trypsin = assay: Proteinase-inhibitory activity; type: biochemical; details: 250 µg/mL; mean ± SD (n = 3)
Procedure, shortened: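 Trypsin (0.06 mg per 2 mL, 20 mM Tris-HCl pH 7.4) was preincubated 5 min with test sample at 250 µg/mL, then 0.8% casein was added for 20 min. Perchloric acid stopped the reaction and supernatant absorbance was read at 280 nm. % inhibition is relative to the no-sample control, in triplicate.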

[10] = system: formaldehyde-induced rat paw oedema; assay: Formaldehyde-induced rat paw oedema (prophylactic); type: in vivo; details: for paw volume reduced compared to positive control: 25 mg/kg orally
COX-1 = biological target: T1, COX-1 (Homo sapiens, UniProt P23219); assay: COX-1 inhibition, Cayman assay kit; type: biochemical; details: mean of two determinations
T1 construct: purchased Cayman Chemical 701070
T1 sequence (P23219 24-599): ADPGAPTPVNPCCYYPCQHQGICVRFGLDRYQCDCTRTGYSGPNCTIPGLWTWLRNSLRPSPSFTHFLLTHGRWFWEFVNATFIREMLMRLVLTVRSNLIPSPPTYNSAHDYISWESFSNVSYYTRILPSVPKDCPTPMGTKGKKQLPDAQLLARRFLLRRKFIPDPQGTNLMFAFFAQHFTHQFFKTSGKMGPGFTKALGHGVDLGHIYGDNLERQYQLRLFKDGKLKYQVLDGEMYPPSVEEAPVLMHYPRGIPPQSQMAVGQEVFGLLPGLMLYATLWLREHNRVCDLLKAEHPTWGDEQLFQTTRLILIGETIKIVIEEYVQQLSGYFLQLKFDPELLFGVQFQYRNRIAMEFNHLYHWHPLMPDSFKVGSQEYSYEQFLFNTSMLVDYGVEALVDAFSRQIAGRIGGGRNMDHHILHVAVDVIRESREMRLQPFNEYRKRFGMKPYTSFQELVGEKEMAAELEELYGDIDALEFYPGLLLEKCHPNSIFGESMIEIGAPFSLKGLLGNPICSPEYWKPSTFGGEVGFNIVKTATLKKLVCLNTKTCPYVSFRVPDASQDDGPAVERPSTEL

COX-2 = biological target: T2, COX-2 (Homo sapiens, UniProt P35354); assay: COX-2 inhibition, Cayman assay kit; type: biochemical; details: for IC50: mean of two determinations; for SI, selectivity index (COX-1/COX-2): ratio of COX-1/COX-2 IC50
T2 construct: purchased Cayman Chemical 701080
T2 sequence (P35354 18-604): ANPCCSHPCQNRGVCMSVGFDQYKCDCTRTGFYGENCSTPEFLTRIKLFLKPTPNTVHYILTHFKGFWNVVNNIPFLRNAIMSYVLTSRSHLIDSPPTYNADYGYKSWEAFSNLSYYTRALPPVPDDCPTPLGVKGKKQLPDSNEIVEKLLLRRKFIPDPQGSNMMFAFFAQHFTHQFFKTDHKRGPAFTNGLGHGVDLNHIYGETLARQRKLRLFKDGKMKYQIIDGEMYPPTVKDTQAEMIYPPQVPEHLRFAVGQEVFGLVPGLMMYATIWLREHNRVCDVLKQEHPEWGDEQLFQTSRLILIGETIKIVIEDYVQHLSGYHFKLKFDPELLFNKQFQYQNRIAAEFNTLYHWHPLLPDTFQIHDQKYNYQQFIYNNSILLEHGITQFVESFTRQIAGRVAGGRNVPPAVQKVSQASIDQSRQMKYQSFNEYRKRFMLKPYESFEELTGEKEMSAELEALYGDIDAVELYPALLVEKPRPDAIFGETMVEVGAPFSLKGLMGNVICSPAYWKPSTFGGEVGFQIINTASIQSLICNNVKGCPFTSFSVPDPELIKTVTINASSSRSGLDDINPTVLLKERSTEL

[11] = system: Staphylococcus aureus ATCC 29213; assay: MIC, two-fold serial dilution, S. aureus; type: cell-based; details: ATCC29213, read-out: Minimum inhibitory concentration, SA
Source text: as §2, §3

[12] = system: Bacillus megaterium ATCC 9885; assay: MIC, two-fold serial dilution, B. megaterium; type: cell-based; details: Priestia megaterium, ATCC9885, read-out: Minimum inhibitory concentration, BM
Source text: as §2, §3

[13] = system: Escherichia coli ATCC 2592; assay: MIC, two-fold serial dilution, E. coli; type: cell-based; details: ATCC2592, read-out: Minimum inhibitory concentration, EC
Source text: as §2, §3

[14] = system: Pseudomonas aeruginosa ATCC 27,953; assay: MIC, two-fold serial dilution, P. aeruginosa; type: cell-based; details: ATCC27, read-out: Minimum inhibitory concentration, PA
Source text: as §2, §3

[15] = system: Saccharomyces cerevisiae local isolate; assay: MIC, two-fold serial dilution, S. cerevisiae; type: cell-based; details: read-out: Minimum inhibitory concentration, SC
Source text: as §2, §3

[16] = system: Candida albicans NRRL Y-477; assay: MIC, two-fold serial dilution, C. albicans; type: cell-based; details: NRRLY477, read-out: Minimum inhibitory concentration, CA
Source text: as §2, §3

tested microorganisms [17] = assay: MIC, summary over the tested microorganisms; type: cell-based; details: two-fold serial dilution; read-out: MIC against most tested microorganisms
Source text: as §2, §3

tested microorganisms [18] = assay: Agar well diffusion, summary over the tested microorganisms; type: cell-based; details: all tested microorganisms
Source text: as §2
Antimicrobial tests were conducted via the agar well diffusion method using 100 μL of suspension containing 1 × 10^8 CFU/mL pathological tested bacteria and 1 × 10^6 CFU/mL yeast spread on NA and SDA, respectively. […] After incubation, antimicrobial activity was evaluated by measuring the zone of inhibition against the test organisms and compared with that of the standard. Antimicrobial activities were expressed as the diameter of the inhibition zone (IZ) in mm. The experiment was carried out in triplicate and the average zone of inhibition was calculated.

| SMILES | IC50 [1] | zone of inhibition at 10000 µg/mL [2] | zone of inhibition at 10000 µg/mL [3] | zone of inhibition at 10000 µg/mL [4] | zone of inhibition at 10000 µg/mL [5] | zone of inhibition at 10000 µg/mL [6] | zone of inhibition at 10000 µg/mL [7] | zone of inhibition at 10000 µg/mL [8] | MIC [9] | % Inhibition (proteinase) (trypsin) | IC50 (COX-1) | IC50 (COX-2) | SI, selectivity index (COX-1/COX-2) (COX-2) | melting point | also measured |
| --- | --- | --- | --- | --- | --- | --- | --- | --- | --- | --- | --- | --- | --- | --- | --- |
| Cc1ccc2oc(=O)c3c(c2c1)OC(N)=C(C(N)=O)C3c1ccc([N+](=O)[O-])cc1 (racemic) [3a, (±)-2-Amino-9-methyl-4-(4-nitrophenyl)-5-oxo-4H,5H-pyrano[3,2-c]chromene-3-carboxamide] | — ((—): inactive (IC50 > 200 μg/mL)) | < 15 mm | 18 mm | 16 mm | 16 mm | 15 mm | < 15 mm | < 15 mm | 1000 µg/mL (≈ 2540 µM) | 79.72 ± 4.51% | 183 µM | 9.81 µM | 18.68 | 142 to 144 °C | % inhibition of paw oedema ([10]; 2.5 mg/kg orally, 1 h after inducing inflammation): 29.2% |
| Cc1ccc2oc(=O)c3c(c2c1)OC(/N=C/c1ccccc1)=C(C#N)C3c1ccc([N+](=O)[O-])cc1 (racemic) [5a, (±)-2-(benzylideneamino)-9-methyl-4-(4-nitrophenyl)-5-oxo-4H,5H-pyrano[3,2-c]chromene-3-carbonitrile] | — ((—): inactive (IC50 > 200 μg/mL)) | 25 mm | 27 mm | 22 mm | 26 mm | 24 mm | 26 mm | 25 mm | 250 µg/mL (≈ 539 µM) |  | 1130 µM | 7.41 µM | 152 and 152.02 | 208 to 209 °C | MIC [11]: 250 µg/mL (≈ 539 µM); MIC [12]: 500 µg/mL (≈ 1080 µM); MIC [13]: 250 µg/mL (≈ 539 µM); MIC [14]: 500 µg/mL (≈ 1080 µM); MIC [15]: 500 µg/mL (≈ 1080 µM); MIC [16]: 500 µg/mL (≈ 1080 µM); MIC (tested microorganisms [17]): 250 to 500 µg/mL (≈ 539 to 1080 µM) |
| Cc1ccc2oc(=O)c(S(=O)(=O)Nc3ccc(S(N)(=O)=O)cc3)c(O)c2c1 [7b, 4-Hydroxy-6-methyl-2-oxo-N-(4-sulfamoylphenyl)-2H-chromene-3-sulfonamide] | 61.78 ± 2.719 µg/mL (≈ 151 µM) | < 15 mm | < 15 mm | < 15 mm | < 15 mm | < 15 mm |  | < 15 mm |  | 5.93 ± 2.11% | 47.6 µM | 8.24 µM | 5.78 | 241 to 243 °C | zone of inhibition at 10000 µg/mL ([7]; well diffusion, 100 μL of 10 mg/mL in DMSO, S. cerevisiae): < 15 mm; IZ against the tested microorganisms (tested microorganisms [18]): < 15 mm |
| COc1ccc2c(c1)c(CC(=O)O)c(C)n2C(=O)c1ccc(Cl)cc1 [Indomethacin, reference compound] |  |  |  |  |  |  |  |  |  |  |  |  |  |  | paw volume reduced compared to positive control ([10]; 1 h after formaldehyde): 72.09%; paw volume reduced compared to positive control ([10]; 2 h after formaldehyde): 74.79%; paw volume reduced compared to positive control ([10]; 3 h after formaldehyde): 71.5% |
